What was measured:
Assay in all cases: relative viability (nuclei count vs DMSO), 5 days (fraction); higher = more cells survive
[1] = compound: CC1CC(=O)N(C2=CN=C(N=C2N1C3CCCC3)NC4=C(C=C(C=C4)C(=O)NC5CCN(CC5)C)OC)C [NPK76-II-72-1] + CC(=O)Nc1cccc(-n2c(=O)n(C3CC3)c(=O)c3c(Nc4ccc(I)cc4F)n(C)c(=O)c(C)c32)c1 [Trametinib] (partner 0.02 µM)
Procedure, shortened: (§1)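 Relative viability was taken as the ratio of nuclei in treated wells to nuclei in vehicle wells. Lung cancer cell lines in 1536-well plates received compounds by pin tool one day after seeding, either one drug alone or a fixed anchor-drug dose plus five library-drug doses (not always all listed) in √10 steps. Nuclei were counted on 4× images after 5 days of treatment, and values are medians of duplicate plates.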

[2] = compound: CC1CC(=O)N(C2=CN=C(N=C2N1C3CCCC3)NC4=C(C=C(C=C4)C(=O)NC5CCN(CC5)C)OC)C [NPK76-II-72-1] + CC1(C)CCC(c2ccc(Cl)cc2)=C(CN2CCN(c3ccc(C(=O)NS(=O)(=O)c4ccc(N[C@H](CCN5CCOCC5)CSc5ccccc5)c(S(=O)(=O)C(F)(F)F)c4)cc3)CC2)C1 [Navitoclax] (partner 0.5 µM)
Procedure, shortened: as §1

[3] = compound: CC1CC(=O)N(C2=CN=C(N=C2N1C3CCCC3)NC4=C(C=C(C=C4)C(=O)NC5CCN(CC5)C)OC)C [NPK76-II-72-1] + C[C@]1(O)C[C@@H](c2nc(-c3ccc4ccc(-c5ccccc5)nc4c3)c3c(N)nccn32)C1 [Linsitinib] (partner 1 µM)
Procedure, shortened: as §1

[4] = compound: CC1CC(=O)N(C2=CN=C(N=C2N1C3CCCC3)NC4=C(C=C(C=C4)C(=O)NC5CCN(CC5)C)OC)C [NPK76-II-72-1] + CC(=O)c1c(C)c2cnc(Nc3ccc(N4CCNCC4)cn3)nc2n(C2CCCC2)c1=O [Palbociclib] (partner 0.5 µM)
Procedure, shortened: as §1

Cell Line | relative viability ([1]; first compound 0.01 µM) | relative viability ([1]; first compound 0.03162 µM) | relative viability ([1]; first compound 0.1 µM) | relative viability ([1]; first compound 0.3162 µM) | relative viability ([1]; first compound 1 µM) | relative viability ([2]; first compound 0.01 µM) | relative viability ([2]; first compound 0.03162 µM) | relative viability ([2]; first compound 0.1 µM) | relative viability ([2]; first compound 0.3162 µM) | relative viability ([2]; first compound 1 µM) | relative viability ([3]; first compound 0.01 µM) | relative viability ([3]; first compound 0.03162 µM) | relative viability ([3]; first compound 0.1 µM) | relative viability ([3]; first compound 0.3162 µM) | relative viability ([3]; first compound 1 µM) | relative viability ([4]; first compound 0.01 µM) | relative viability ([4]; first compound 0.03162 µM) | relative viability ([4]; first compound 0.1 µM) | relative viability ([4]; first compound 0.3162 µM) | relative viability ([4]; first compound 1 µM)
HCC-827 | 0.557 | 0.491 | 0.556 | 0.633 | 0.565 | 1.01 | 1.06 | 0.978 | 0.993 | 1.12 | 0.891 | 0.91 | 0.939 | 0.855 | 1.01 | 0.474 | 0.457 | 0.488 | 0.491 | 0.561
NCI-H1355 | 0.468 | 0.452 | 0.421 | 0.395 | 0.44 | 0.881 | 0.959 | 0.928 | 0.871 | 0.993 | 0.844 | 0.837 | 0.809 | 0.792 | 0.848 | 0.377 | 0.427 | 0.397 | 0.383 | 0.439
NCI-H1734 | 0.621 | 0.645 | 0.587 | 0.638 | 0.643 | 0.861 | 0.896 | 0.823 | 0.766 | 0.866 | 0.896 | 0.899 | 0.883 | 0.884 | 0.904 | 0.328 | 0.348 | 0.345 | 0.321 | 0.384
HARA | 0.83 | 0.864 | 0.619 |  | 0.856 | 1.12 | 1.14 | 1.13 | 1.08 | 1.15 | 1.03 | 0.921 | 0.929 | 0.77 | 1.03 | 0.27 | 0.267 | 0.254 | 0.21 | 0.295
HCC-15 | 0.35 | 0.329 | 0.342 | 0.357 | 0.393 | 0.692 | 0.739 | 0.662 | 0.686 | 0.804 | 0.85 | 0.911 | 0.952 | 0.826 | 0.953 | 0.722 | 0.849 | 0.705 | 0.694 | 0.745
LCLC-97TM1 | 0.203 | 0.208 | 0.181 | 0.215 | 0.209 |  | 0.392 | 0.52 | 0.439 | 0.488 |  | 0.16 | 0.167 | 0.192 | 0.156 | 0.196 | 0.215 | 0.209 | 0.211 | 0.203
RERF-LC-KJ | 0.874 | 0.854 | 0.838 | 0.809 | 0.946 | 0.878 | 0.925 | 1.17 | 0.851 | 1.14 | 0.902 | 0.876 | 0.802 | 0.771 | 0.923 | 0.906 | 1.12 | 1.06 | 1.08 | 1.18
NCI-H1651 | 0.83 | 0.82 | 0.839 | 0.794 | 0.816 | 0.915 | 1.04 | 1.11 | 0.953 | 1.1 | 0.947 | 0.972 | 1.09 | 0.867 | 1.05 | 0.512 | 0.535 | 0.483 | 0.48 | 0.558
NCI-H2023 | 0.584 | 0.645 | 0.677 | 0.556 | 0.512 | 0.943 | 0.947 | 0.969 | 0.923 | 1.01 | 0.488 | 0.713 | 0.716 | 0.56 | 0.655 | 0.365 | 0.385 | 0.343 | 0.341 | 0.439
LC-2-ad | 0.826 | 0.934 | 0.983 | 0.92 | 0.945 | 0.469 | 0.501 | 0.599 | 0.395 | 0.541 | 0.78 | 0.767 | 0.854 | 0.801 | 0.834 | 0.491 | 0.508 | 0.537 | 0.498 | 0.475
NCI-H1437 | 0.492 | 0.533 | 0.557 | 0.53 | 0.616 | 1.17 | 1.11 | 0.967 | 0.978 | 1.13 | 0.973 | 1.08 | 0.986 | 0.802 | 1.07 | 0.31 | 0.311 | 0.292 | 0.272 | 0.3
SK-LU-1 | 0.454 | 0.508 | 0.526 | 0.437 | 0.473 | 0.747 | 0.996 | 1.31 | 0.168 | 0.838 | 1.07 | 1.09 | 1.16 | 1.02 | 1.33 | 0.374 | 0.374 | 0.371 | 0.35 | 0.417
H3255 | 0.675 | 0.603 | 0.637 |  | 0.587 | 0.556 | 0.494 | 0.52 | 0.173 | 0.639 | 0.973 | 0.994 | 0.915 | 0.677 | 1.14 | 0.351 | 0.319 | 0.305 | 0.3 | 0.304
NCI-H1792 |  | 0.469 | 0.478 | 0.378 | 0.506 | 0.599 | 0.553 | 0.606 | 0.624 | 0.726 | 0.615 | 0.629 | 0.52 | 0.492 | 0.591 | 0.698 |  | 0.672 | 0.662 | 0.68
SK-MES-1 | 0.543 | 0.583 | 0.489 | 0.593 | 0.555 | 1.19 | 1.34 | 1.28 | 1.24 | 1.31 | 1.05 | 1.07 | 0.994 | 0.995 | 1.15 | 0.325 | 0.342 | 0.26 | 0.313 | 0.385
NCI-H2087 | 0.219 | 0.203 | 0.201 | 0.179 | 0.244 | 0.972 | 1.02 | 0.997 | 0.919 | 1.06 | 1.02 | 0.996 | 0.909 | 1 | 1.11 | 0.236 | 0.255 | 0.242 | 0.22 | 0.254

— the supplement of paper PMC10307832
